The subject of test [1] is Lacticaseibacillus casei-01. Briefly: Antibiotic sensitivity, MIC on antibacterial MRS agar plates. The class given is cell-based. Conditions: for MIC: Lacticaseibacillus. As for the experimental part:
(§1) According to the criteria for determining bacterial resistance (2012 edition) stipulated by the European Food Safety Agency, antibiotics including ampicillin, vancomycin, gentamicin, kanamycin, streptomycin, erythromycin, clindamycin, tetracycline and chloramphenicol were used to prepare antibacterial stock solutions with a concentration of 5120 μg/mL. They were diluted to the required concentration by a diluent preparation method before use, and were added to the corresponding medium according with certain proportion. 9.0 mL of the modified MRS agar media were added into large test tubes. After sterilizing at 121° C. for 15 min, they were placed in a water bath (50° C.) at a constant temperature for later use. 1.0 mL of the antibacterial diluents were pipetted into the large test tubes, followed by vortexing and mixing immediately. The diluents were then poured into a sterile petri dish, and bacteriostatic plates with a certain drug concentration (μg/mL) were prepared after solidification. For each antibiotics, 8 concentration gradient antibacterial plates were prepared according to a ½ dilution method. […] At the same time, a blank plate without inoculation was used as a control. […] 3 parallel experiments were conducted. The lactic acid bacteria susceptibility result was shown in Table 1 determined according to the relevant standards: […] The second step was the preparation of antibacterial plates: antibiotics including ampicillin, vancomycin, gentamicin, kanamycin, streptomycin, erythromycin, clindamycin, tetracycline and chloramphenicol were used to prepare antibacterial stock solutions at a concentration of […]. The solutions were diluted to the required concentration before use according to a diluent preparation method. 1.0 mL of the antibacterial diluents were pipetted into large test tubes with 9.0 mL of modified MRS agar media, followed by vortexing and mixing immediately. Then, they were poured on sterile plates. After solidification, antibacterial plates with a certain antibiotic concentration (m/mL) were obtained. At the same time, a control plate without antibiotic was prepared. […] At the same time, a blank plate without inoculation was used as a control.

Test [2] concerns Schleiferilactobacillus harbinensis M1. Described as above. The class given is cell-based. Conditions: for MIC: Schleiferilactobacillus harbinensis. As for the experimental part:
as §1

Where [3] appears, read: CASEI01, against L. casei-01, agar plates, 37° C., 16-20 hours, read-out: MIC value.
[4] abbreviates: against S. harbinensis M1, agar plates, 37° C., 16-20 hours, read-out: MIC value.

In brackets after ≈: the same amount, converted by molar mass. Like-named read-outs stand apart in the source and are kept apart here.

The term MIC denotes the lowest concentration found to suppress growth. Consider `CC1(C)S[C@@H]2[C@H](NC(=O)[C@H](N)c3ccccc3)C(=O)N2[C@H]1C(=O)O` [ampicillin], for which the MIC in test [1] (setting [3]) and in test [2] (setting [4]) was 1 µg/mL (≈ 2.86 µM) throughout.
As for `O=C(N[C@H](CO)[C@H](O)c1ccc([N+](=O)[O-])cc1)C(Cl)Cl` [chloramphenicol], the MIC in test [1] (setting [3]) was 4 µg/mL (≈ 12.4 µM); in test [2] (setting [4]) it was 2 µg/mL (≈ 6.19 µM).
For `CCC[C@@H]1C[C@@H](C(=O)N[C@@H]([C@H]2O[C@H](SC)[C@H](O)[C@@H](O)[C@H]2O)[C@H](C)Cl)N(C)C1` [clindamycin] the same measures were 0.125 µg/mL (≈ 0.294 µM) and 0.5 µg/mL (≈ 1.18 µM).
The like results for `CC[C@H]1OC(=O)[C@H](C)[C@@H](O[C@H]2C[C@@](C)(OC)[C@@H](O)[C@H](C)O2)[C@H](C)[C@@H](O[C@@H]2O[C@H](C)C[C@H](N(C)C)[C@H]2O)[C@](C)(O)C[C@@H](C)C(=O)[C@H](C)[C@@H](O)[C@]1(C)O` [erythromycin] were, in that order, 0.5 µg/mL (≈ 0.681 µM) and 0.5 µg/mL (≈ 0.681 µM).
For `NC[C@H]1O[C@H](O[C@H]2[C@H](O)[C@@H](O[C@H]3O[C@H](CO)[C@@H](O)[C@H](N)[C@H]3O)[C@H](N)C[C@@H]2N)[C@H](O)[C@@H](O)[C@@H]1O` [kanamycin] the same measures were 16 µg/mL (≈ 33 µM) and 16 µg/mL (≈ 33 µM).
Regarding `[H]/N=C(/N)N[C@H]1[C@H](O)[C@@H](O)[C@H](O[C@@H]2O[C@@H](C)[C@](O)(C=O)[C@H]2O[C@@H]2O[C@@H](CO)[C@H](O)[C@@H](O)[C@@H]2NC)[C@@H](N/C(N)=N\[H])[C@@H]1O` [streptomycin], the MIC came to 16 µg/mL (≈ 27.5 µM) in test [1] (setting [3]) and 8 µg/mL (≈ 13.8 µM) in test [2] (setting [4]).
Consider `CN(C)[C@@H]1C(O)=C(C(N)=O)C(=O)[C@@]2(O)C(O)=C3C(=O)c4c(O)cccc4[C@@](C)(O)[C@H]3C[C@@H]12` [tetracycline], for which the MIC in test [1] (setting [3]) and in test [2] (setting [4]) was 2 µg/mL (≈ 4.5 µM) throughout.
As for `CN[C@H](CC(C)C)C(=O)N[C@H]1C(=O)N[C@@H](CC(N)=O)C(=O)N[C@H]2C(=O)N[C@H]3C(=O)N[C@H](C(=O)N[C@H](C(=O)O)c4cc(O)cc(O)c4-c4cc3ccc4O)[C@H](O)c3ccc(c(Cl)c3)Oc3cc2cc(c3O[C@@H]2O[C@H](CO)[C@@H](O)[C@H](O)[C@H]2O[C@H]2C[C@](C)(N)[C@H](O)[C@H](C)O2)Oc2ccc(cc2Cl)[C@H]1O` [vancomycin], the MIC in test [1] (CASEI01, read-out: MIC value) was found to be 4 µg/mL (≈ 2.76 µM); in test [2] (M1, read-out: MIC value), 2 µg/mL (≈ 1.38 µM).
gentamicin: the MIC value in test [1] (against L. casei-01, agar plates, 37° C., 16-20 hours) is 16 µg/mL; in test [2] (against S. harbinensis M1, agar plates, 37° C., 16-20 hours), 16 µg/mL.

Values taken from patent publication US20230124764A1, “LACTOBACILLUS HARBINENSIS AND APPLICATION THEREOF” (priority 2018, published 2023).
